# Results taken from patent US10294202B2, “Pyrrolidinones as herbicides” (FMC Corporation, priority 2013, dated 2019).
# Assays:
# field violet = experiment: Test D pre-/postemergence herbicide test; format: in vivo, Viola arvensis; settings: Postemergence, Field Violet, scale 0 to 100
# In short: (§1)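 Test chemicals, formulated in a non-phytotoxic solvent mixture with surfactant, are sprayed preemergence onto seeds in silt loam and postemergence onto plants of 2–18 cm. Plants are held in a controlled growth environment for 7 to 21 days, then rated visually versus controls (0–100).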
# nutsedge, yellow = experiment: Test E preemergence herbicide test; format: in vivo, Cyperus esculentus; set-up: key: 0 = no effect, 100 = complete control
# In short: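 Seeds were sown in silt loam soil and treated preemergence with test chemicals in a non-phytotoxic solvent mixture containing a surfactant. Plants were kept in a greenhouse for 21 days, then visually rated against untreated controls on a 0–100 scale (0 = no effect, 100 = complete control).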
# deadnettle = experiment: Test D pre-/postemergence herbicide test; format: in vivo, Lamium amplexicaule; settings: Postemergence, Deadnettle, scale 0 to 100
# In short: as §1
# velvetleaf = experiment: Test E preemergence herbicide test; format: in vivo, Abutilon theophrasti; set-up: key: 0 = no effect, 100 = complete control
# From the text: Seeds of plant species selected from corn (Zea mays), soybean (Glycine max), velvetleaf (Abutilon theophrasti), lambsquarters (Chenopodium album), wild poinsettia (Euphorbia heterophylla), pigweed, palmer (palmer pigweed, Amaranthus palmeri), waterhemp (common waterhemp, Amaranthus rudis), surinam grass (Brachiaria decumbens), crabgrass, large (large crabgrass, Digitaria sanguinalis), crabgrass, Brazil (Brazilian crabgrass, Digitaria horizontalis), panicum, fall (fall panicum, Panicum dichotomiflorum), foxtail, giant (giant foxtail, Setaria faberii), foxtail, green (green foxtail, Setaria viridis), goosegrass (Eleusine indica), johnsongrass (Sorghum halepense), ragweed (common ragweed, Ambrosia elatior), barnyardgrass (Echinochloa crus-galli), sandbur (southern sandbur, Cenchrus echinatus), arrowleaf […] rhombifolia), ryegrass, Italian (Italian ryegrass, Lolium multiflorum), dayflower, VA (Virginia dayflower, Commelina virginica), field bindweed (Convolvulus arvensis), morningglory (Ipomoea coccinea), nightshade (eastern black nightshade, Solanum ptycanthum), kochia (Kochia scoparia), nutsedge, yellow (yellow nutsedge, Cyperus esculentus), cocklebur (common cocklebur, Xanthium strumarium), smartweed (ladysthumb smartweed, Polygonum Persicaria) and beggarticks (hairy beggarticks, Bidens pilosa), were planted into a silt loam soil and treated preemergence with test chemicals formulated in a non-phytotoxic solvent mixture which included a surfactant. Treated plants and controls were maintained in a greenhouse for 21 days, after which time all species were compared to controls and visually evaluated. Plant response ratings, summarized in Table E, are based on a scale of 0 to 100 where 0 is no effect and 100 is complete control. A dash (-) response means no test result.
# cocklebur = experiment: Test C pre-/postemergence herbicide test; format: in vivo, Xanthium strumarium
# In short: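 Herbicidal effect was judged by eye 13 to 15 days after treatment in the greenhouse, using a 0–100 scale against controls. Chemicals in a non-phytotoxic solvent with surfactant were sprayed onto planted loam/sand soil or onto plants 2 to 18 cm tall in a peat-based growing medium.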
smiles,measurement,setting,value
"O=C1NCC(c2ccc(F)c(F)c2)C1C(=O)Nc1cccc(F)c1F (stereo not shown) [Compound 17, N-(2,3-difluorophenyl)-4-(3,4-difluorophenyl)-2-oxo-3-pyrrolidinecarboxamide]",Plant response rating,field violet; 16 g ai/ha,0
same,Plant response rating,field violet; 31 g ai/ha,0
same,Plant response rating,field violet; 62 g ai/ha,0
same,Plant response rating,field violet; 125 g ai/ha,0
same,Plant response rating,field violet; 250 g ai/ha,10
same,"Plant response rating, Nutsedge, Yellow","nutsedge, yellow; 16 g ai/ha",0
same,"Plant response rating, Nutsedge, Yellow","nutsedge, yellow; 31 g ai/ha",0
same,"Plant response rating, Nutsedge, Yellow","nutsedge, yellow; 62 g ai/ha",0
same,"Plant response rating, Nutsedge, Yellow","nutsedge, yellow; 125 g ai/ha",0
same,"Plant response rating, Nutsedge, Yellow","nutsedge, yellow; 250 g ai/ha",15
same,Plant response rating,deadnettle; 16 g ai/ha,0
same,Plant response rating,deadnettle; 31 g ai/ha,0
same,Plant response rating,deadnettle; 62 g ai/ha,0
same,Plant response rating,deadnettle; 125 g ai/ha,10
same,Plant response rating,deadnettle; 250 g ai/ha,10
same,"Plant response rating, Velvetleaf",velvetleaf; 16 g ai/ha,0
same,"Plant response rating, Velvetleaf",velvetleaf; 31 g ai/ha,0
same,"Plant response rating, Velvetleaf",velvetleaf; 62 g ai/ha,0
same,"Plant response rating, Velvetleaf",velvetleaf; 125 g ai/ha,0
same,"Plant response rating, Velvetleaf",velvetleaf; 250 g ai/ha,0
same,"Plant response rating, Cocklebur","cocklebur; Postemergence, 31 g ai/ha, scale 0 (no effect) to 100 (complete control)",0
same,"Plant response rating, Cocklebur","cocklebur; Postemergence, 62 g ai/ha, scale 0 to 100 (0 no effect, 100 complete control)",0
same,"Plant response rating, Cocklebur","cocklebur; Postemergence, 125 g ai/ha, scale 0 to 100 (0 no effect, 100 complete control)",0
same,"Plant response rating, Cocklebur","cocklebur; Postemergence, 250 g ai/ha, scale 0 to 100 (0 no effect, 100 complete control)",0
same,"Plant response rating, Cocklebur","cocklebur; Preemergence, 62 g ai/ha, scale 0 to 100",5
same,"Plant response rating, Cocklebur","cocklebur; Preemergence, 125 g ai/ha, scale 0 to 100 (0 no effect, 100 complete control)",5
same,Cocklebur plant response rating,"cocklebur; Preemergence, 31 g ai/ha, scale 0 to 100 (0 no effect, 100 complete control)",0
same,"Plant response rating, Cocklebur","cocklebur; Preemergence, 250 g ai/ha, scale 0 to 100 (0 no effect, 100 complete control)",5
